Results on 14 compounds are retold here after ChEMBL document CHEMBL1201862, “PubChem BioAssay data set” (2004).

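Tested at 5 concentrations; 48 h exposure; 96-well plates; endpoints linearly interpolated, else capped at highest concentration. Here, GI50 denotes the concentration required for 50% inhibition of growth.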 Active and inactive are the calls of the source. Rule as the data show it: active = GI50 up to about 1.1 µM and inactive = higher. Non-standard residues stand in square brackets, D forms with d. Residues, ends and D or L forms follow the SMILES beside them. ξ: configuration not given here. *: point of attachment. ξNMeF = CNC(Cc1ccccc1)C(=O)O; NMeV = CN[C@H](C(=O)O)C(C)C; Boc = CC(C)(C)OC(=O)*; OBn = c1ccc(CO*)cc1

Some test systems named below: K562; SF-295; OVCAR-3; HCT-15; HCT-116; 786-0; M19-MEL; SNB-78; OVCAR-4; NCI-H460; UACC-257; DLD-1; HT-29; LXFL 529; U-251; NCI-H226; MCF7.
Holding throughout (assay): NCI anticancer screen, dose series, 48 h

For the compound `Cc1cc2c(c(C(N)=O)c1C)-c1cccc(F)c1C2=O`, the GI50 is > 100 µM (inactive) with K562; > 100 µM (inactive) in the experiment on SF-295; > 100 µM (inactive) in the experiment with OVCAR-3; greater than 100 µM with HCT-15; 80.2 µM (inactive) in the experiment on HCT-116; > 100 µM (inactive) in the experiment on 786-0. Moreover, the GI50 in the experiment with M19-MEL, with SNB-78, with OVCAR-4, in the experiment on NCI-H460, with UACC-257 and in the experiment with DLD-1 was > 100 µM (inactive) each time. For the same compound, the GI50 with HT-29, in the experiment with LXFL 529 and in the experiment with U-251 was > 100 µM (inactive) throughout.
For `COC1CCC2C(NS(=O)(=O)c3ccc(C)cc3)CCCC2O1.Cc1ccc(S(=O)(=O)NC(C)(C)C=O)cc1` (centres undefined), the GI50 is 9.68 µM (inactive) with K562; 8.51 µM (inactive) in the experiment on SF-295; 13 µM (inactive) in the experiment on OVCAR-3; 10.3 µM (inactive) in the experiment with NCI-H226; 15.6 µM in the experiment with HCT-15; 7.33 µM (inactive) with HCT-116. Besides, the GI50 in the experiment on 786-0 was 19.9 µM (inactive); in the experiment with M19-MEL, 12.7 µM (inactive); with SNB-78, > 34.5 µM (inactive); in the experiment on OVCAR-4 it was 12.6 µM (inactive); with NCI-H460 it was 11.6 µM (inactive); in the experiment on UACC-257, 3.29 µM (inactive). The GI50 with DLD-1 is 20.3 µM (inactive); in the experiment with HT-29, 11.4 µM (inactive); with U-251, > 34.5 µM (inactive).
Take `Brc1ccc2c(c1)C1C(CO2)C(c2ccccc2)=NN1c1ccccc1` (centres undefined): the GI50 was 78.9 µM (inactive) in the experiment with K562; > 100 µM (inactive) in the experiment with SF-295; > 100 µM (inactive) with OVCAR-3; > 100 µM (inactive) in the experiment with HCT-116; > 100 µM (inactive) with 786-0; > 100 µM (inactive) in the experiment on M19-MEL. Besides, the GI50 in the experiment on SNB-78 was > 100 µM (inactive); in the experiment on NCI-H460 it was > 100 µM (inactive); with UACC-257 it was > 100 µM (inactive); in the experiment on DLD-1, > 100 µM (inactive); with HT-29 it was 54.2 µM (inactive); in the experiment on LXFL 529 it was > 100 µM (inactive). The GI50 in the experiment with U-251 was > 100 µM (inactive).
For `COC1OCC(O)C(NC(=O)N(C)N=O)C1O` (centres undefined), the GI50 in the experiment on K562 was > 100 µM (inactive); in the experiment with SF-295 it was > 100 µM (inactive); in the experiment on OVCAR-3, > 100 µM (inactive); with NCI-H226 it was > 100 µM (inactive); in the experiment with HCT-15, greater than 100 µM; with MCF7, > 100 µM (inactive). Further, the GI50 in the experiment on HCT-116, with M19-MEL, with SNB-78, with OVCAR-4, with NCI-H460 and in the experiment with UACC-257 was > 100 µM (inactive) each time. Also, the GI50 in the experiment on DLD-1, in the experiment with HT-29 and with U-251 was > 100 µM (inactive) throughout.
With `CN1Nc2ccccc2CC1=O`, the GI50 was > 100 µM (inactive) with K562; > 100 µM (inactive) in the experiment with SF-295; > 100 µM (inactive) in the experiment with OVCAR-3; > 100 µM (inactive) in the experiment with NCI-H226; greater than 100 µM in the experiment with HCT-15; > 100 µM (inactive) with HCT-116. Further, the GI50 with 786-0, with M19-MEL, in the experiment on SNB-78, in the experiment with OVCAR-4, in the experiment on NCI-H460 and in the experiment on UACC-257 was > 100 µM (inactive) in each case. Besides, the GI50 in the experiment with DLD-1, in the experiment on HT-29 and with U-251 was > 100 µM (inactive) throughout.
Take `COP(=O)(OC)C(=O)N1N(c2ccc([N+](=O)[O-])cc2)C(=O)C(C)NC1(NNc1ccc([N+](=O)[O-])cc1)P(=O)(OC)OC` (centres undefined): the GI50 in the experiment with K562 was > 100 µM (inactive); with OVCAR-3, > 100 µM (inactive); in the experiment with NCI-H226, > 100 µM (inactive); in the experiment on HCT-15, greater than 100 µM; with HCT-116 it was > 100 µM (inactive); in the experiment on 786-0 it was > 100 µM (inactive). In addition, the GI50 is > 100 µM (inactive) in the experiment on M19-MEL; > 100 µM (inactive) with OVCAR-4; > 100 µM (inactive) with NCI-H460; > 100 µM (inactive) with UACC-257; > 100 µM (inactive) in the experiment on DLD-1; 57.8 µM (inactive) with LXFL 529. Also, the GI50 in the experiment on U-251 is > 100 µM (inactive).
Take `O=C(N/C(=C\c1ccccc1Cl)c1nc2ccccc2[nH]1)c1ccccc1`: the GI50 in the experiment on K562 is 24.5 µM (inactive); in the experiment on SF-295, 17 µM (inactive); in the experiment on OVCAR-3, 29.7 µM (inactive); in the experiment with HCT-15, 25.8 µM; in the experiment with 786-0, 32.7 µM (inactive); with M19-MEL, 33 µM (inactive). The GI50 in the experiment on SNB-78 was 45.6 µM (inactive); with OVCAR-4, 29 µM (inactive); in the experiment on DLD-1 it was 30.2 µM (inactive); in the experiment with HT-29 it was 24.3 µM (inactive); with LXFL 529 it was 21.9 µM (inactive); with U-251, 27 µM (inactive).
Take `O=c1cc(/C=C/c2ccccc2)c2ccc(O/C(=C\c3ccccc3)c3nc4ccccc4c(=O)o3)cc2o1`: the GI50 with K562 was 10.8 µM (inactive); with SF-295, 26.7 µM (inactive); in the experiment on OVCAR-3, 15 µM (inactive); in the experiment on HCT-15, 30.3 µM; in the experiment on HCT-116, 14.2 µM (inactive); in the experiment with 786-0, 44.3 µM (inactive). For the same compound, the GI50 with M19-MEL is 25.3 µM (inactive); in the experiment on SNB-78, 19.5 µM (inactive); in the experiment on OVCAR-4 it was 27.2 µM (inactive); in the experiment on NCI-H460, 23.3 µM (inactive); with UACC-257 it was 28.9 µM (inactive); in the experiment on DLD-1, 26.7 µM (inactive). The GI50 is 14.8 µM (inactive) with LXFL 529 and 23 µM (inactive) in the experiment on U-251.
As to `CCCCN1C(=O)NC(Cc2ccccc2)C1=O` (centres undefined), the GI50 with SF-295, in the experiment on NCI-H226, in the experiment on M19-MEL, in the experiment with SNB-78, in the experiment on NCI-H460 and with UACC-257 was > 100 µM (inactive) throughout. Further, the GI50 in the experiment on DLD-1, in the experiment on HT-29, in the experiment with LXFL 529 and with U-251 was > 100 µM (inactive) each time.
With `CC1c2c(Cl)nc3ccccc3c2Oc2c1c(Cl)nc1ccccc21`, the GI50 is 46.8 µM (inactive) in the experiment with K562; 67.3 µM (inactive) in the experiment on SF-295; 81.8 µM (inactive) in the experiment with OVCAR-3; 74.6 µM (inactive) with HCT-116; 49.1 µM (inactive) in the experiment with 786-0; > 100 µM (inactive) with M19-MEL. For the same compound, the GI50 was > 100 µM (inactive) in the experiment with SNB-78; > 100 µM (inactive) in the experiment with NCI-H460; > 100 µM (inactive) in the experiment on UACC-257; > 100 µM (inactive) in the experiment with DLD-1; 82.8 µM (inactive) with HT-29; 53.5 µM (inactive) with LXFL 529. The GI50 with U-251 is 61.9 µM (inactive).
On to `CC(C)[C@@H](C(=O)N(C)[C@H](C(=O)N1CCC[C@H]1C(=O)OCc1ccccc1)C(C)C)N(C)C(=O)C(Cc1ccccc1)N(C)C(=O)[C@H](NC(=O)OC(C)(C)C)C(C)C` (some centres undefined) (Boc-[dV][ξNMeF][NMeV][NMeV]P-OBn), for which the GI50 with K562 is 13.5 µM (inactive); with SF-295, 26.5 µM (inactive); in the experiment on OVCAR-3, > 34.5 µM (inactive); in the experiment on NCI-H226, > 100 µM (inactive); in the experiment on HCT-15, greater than 31.6 µM; in the experiment with HCT-116, > 31.6 µM (inactive). Moreover, the GI50 is > 46.8 µM (inactive) in the experiment on 786-0; > 31.6 µM (inactive) with M19-MEL; > 31.6 µM (inactive) in the experiment on NCI-H460; > 31.6 µM (inactive) in the experiment with UACC-257; > 31.6 µM (inactive) with DLD-1; > 31.6 µM (inactive) in the experiment on HT-29. The GI50 in the experiment on LXFL 529 is 42.9 µM (inactive); in the experiment with U-251 it was > 31.6 µM (inactive).
`Cc1cc(O)nc(NN2C(Cl)C(=O)C2c2ccc([N+](=O)[O-])cc2)n1` (centres undefined): the GI50 is 3.1 µM (inactive) in the experiment with K562; 6.53 µM (inactive) with OVCAR-3; 7.52 µM with HCT-15; 9.38 µM (inactive) in the experiment on HCT-116; 4.26 µM (inactive) in the experiment with M19-MEL; 7.36 µM (inactive) in the experiment with SNB-78. For the same compound, the GI50 in the experiment on OVCAR-4 is 13.7 µM (inactive); with NCI-H460 it was 4.04 µM (inactive); in the experiment on UACC-257, 16 µM (inactive); in the experiment with HT-29 it was 15.6 µM (inactive); with LXFL 529, 7.67 µM (inactive); in the experiment with U-251, 13.8 µM (inactive).
With `Cc1nc2nn(Cc3ccccc3)cc2c(=O)o1`, the GI50 in the experiment on K562 was > 100 µM (inactive); in the experiment with SF-295 it was > 100 µM (inactive); in the experiment on OVCAR-3, > 100 µM (inactive); with NCI-H226 it was > 100 µM (inactive); in the experiment on HCT-15 it was greater than 100 µM; in the experiment on HCT-116, > 100 µM (inactive). Moreover, the GI50 with 786-0, with M19-MEL, in the experiment on SNB-78, in the experiment with NCI-H460, with UACC-257 and in the experiment with DLD-1 was > 100 µM (inactive) each time. Also, the GI50 in the experiment on HT-29, in the experiment on LXFL 529 and in the experiment on U-251 was > 100 µM (inactive) throughout.
Turning to `O=C1c2ccccc2C(=O)C2C1C1C(=O)c3ccccc3C(=O)C21` (centres undefined), the GI50 was > 100 µM (inactive) with K562; > 100 µM (inactive) in the experiment on SF-295; 40.6 µM (inactive) with OVCAR-3; 8.69 µM with HCT-15; > 100 µM (inactive) in the experiment on 786-0; 45.4 µM (inactive) in the experiment with M19-MEL. For the same compound, the GI50 with OVCAR-4 is > 100 µM (inactive); in the experiment on NCI-H460 it was > 100 µM (inactive); in the experiment on UACC-257 it was > 100 µM (inactive); in the experiment on DLD-1 it was 15.2 µM (inactive); in the experiment with HT-29, > 100 µM (inactive); with LXFL 529, > 100 µM (inactive). The GI50 in the experiment with U-251 was > 100 µM (inactive).
